Data: patent US20210321649A1, “METHOD FOR DETECTING MISHANDLING AND MISUSE OF FOOD PRODUCTS” (SECURITY MATTERS LTD., priority 2016, published 2021)

Experiment: Solubility of marking compounds in ethanol and water (Table 1)
Details: for Solubility in Ethanol: solvent ethanol; for Solubility in water: solvent water

Solubility in Ethanol | Solubility in water | Substance
Soluble | Soluble | Vitamin B12
Soluble | Insoluble | Copper complexes chlorophylls [Copper complexes chlorophylls (E141)]
